Measured values: patent US12612379B2, “Inhibitors of APOL1 and methods of using same” (Vertex Pharmaceuticals Incorporated, priority 2021, dated 2026)

Target: T1, APOL1 (tet-inducible transgenic APOL1 T-REx-HEK293 cell lines) (Homo sapiens, UniProt O14791)
T1 sequence (O14791 1-398 S342G/I384M): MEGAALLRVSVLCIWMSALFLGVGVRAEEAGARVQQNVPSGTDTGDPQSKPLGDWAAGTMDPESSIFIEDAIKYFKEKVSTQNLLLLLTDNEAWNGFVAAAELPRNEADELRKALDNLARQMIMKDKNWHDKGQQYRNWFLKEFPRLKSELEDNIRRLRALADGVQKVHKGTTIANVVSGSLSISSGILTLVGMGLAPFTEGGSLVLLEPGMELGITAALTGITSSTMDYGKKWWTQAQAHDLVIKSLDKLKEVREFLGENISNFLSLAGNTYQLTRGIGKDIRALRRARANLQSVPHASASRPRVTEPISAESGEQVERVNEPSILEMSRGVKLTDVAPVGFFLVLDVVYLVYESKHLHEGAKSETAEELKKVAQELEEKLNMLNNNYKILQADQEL
Experiment: MultiTox-Fluor Multiplex Cytotoxicity Assay for APOL1 inhibitor properties
Type: cell-based
Conditions: APOL1 induced with 50 ng/mL tet, 24 hours with compound, ratio of dead to live cells, top concentration 10 μM; APOL1 variant (G0/G1/G2) not stated; read-out: IP50 (nM) (i.e., IC50 for cell proliferation)
Method: The MultiTox-Fluor Multiplex Cytotoxicity Assay is a single-reagent-addition, homogeneous, fluorescence assay that measures the number of live and dead cells simultaneously in culture wells. The assay measures cell viability and cytotoxicity by detecting two distinct protease activities. The live-cell protease activity is restricted to intact viable cells and is measured using a fluorogenic, cell-permeant peptide glycyl-phenylalanylamino fluorocoumarin (GF-AFC) substrate. The substrate enters intact cells, where it is cleaved to generate a fluorescent signal proportional to the number of living cells. […] A second, cell-impermeant, fluorogenic peptide substrate (bis-AAF-R110 Substrate) is used to measure dead-cell protease that has been released from cells that have lost membrane integrity. A ratio of dead to live cells is used to normalize data.
Briefly, the tet-inducible transgenic APOL1 T-REx-HEK293 cell lines were incubated with 50 ng/mL tet to induce APOL1 in the presence of 3-(2-(4-fluorophenyl)-1H-indol-3-yl)-N-((3S,4R)-4-hydroxy-2-oxopyrrolidin-3-yl)propenamide at 10.03, 3.24, 1.13, 0.356, 0.129, 0.042, 0.129, 0.0045, 0.0015, 0.0005 μM in duplicate for 24 hours in a humidified 37° C. incubator. The MultiTox reagent was added to each well and placed back in the incubator for an additional 30 minutes. The plate was read on the EnVision plate reader. A ratio of dead to live cells was used to normalize, and data was imported, analyzed, and fit using Genedata Screener (Basel, Switzerland) software. Data was normalized using percent of control, no tet (100% viability), and 50 ng/mL tet treated (0% viability), and fit using Smart Fit. The reagents, methods, and complete protocol for the MultiTox assay are described below.
Human embryonic kidney (HEK293) cell lines containing a tet-inducible expression system (T-REx™; Invitrogen, Carlsbad, CA) and Adeno-associated virus site 1 pAAVS1-Puro-APOL1 G0 or pAAVS1-Puro-APOL1 G1 or pAAVS1-Puro-APOL1 G2 Clones G0 DC2.13, G1 DC3.25, and G2 DC4.44 were grown in a T-225 flask at ˜90% confluency in cell growth media (DMEM, 10% Tet-free FBS, 2 mM L-glutamine, 100 Units/mL penicillin-streptomycin, 5 μg/mL blasticidin S HCl, 1 μg/mL puromycin dihydrochloride). Cells were washed with DPBS and then trypsinized to dissociate from the flask. Media was used to quench the trypsin, cells were then pelleted at 200 g and resuspended in fresh cell assay media (DMEM, 2% Tet-free FBS, 2 mM L-glutamine, 100 Units/mL penicillin-streptomycin). Cells were counted and diluted to 1.17×10^6 cells/mL. 20 μL of cells (23,400/well) were dispensed in every well of a 384-well Poly-D-Lysine coated plate using the Multidrop dispenser. The plates were then incubated at room temperature for one hour.
Tetracycline is needed to induce APOL1 expression. 1 mg/mL tet stock in water was diluted to 250 ng/mL (5×) in cell assay media. 60 μL of cell assay media (no tet control) was dispensed in columns 1 and 24, and 60 μL of 5×tet in 384-PP-round bottom plate was dispensed in columns 2 to 23 with the Multidrop dispenser.
Assay ready plates from the Global Compound Archive were ordered using template 384_APOL1Cell_DR10n2_50 uM_v3. Compounds were dispensed at 200 nL in DMSO. The final top concentration was 10 μM with a 10 point 3-fold dilution in duplicate in the MultiTox assay.
20 μL was transferred from the 5×tet plate to the ARP and mixed, then 5 μL of 5×tet and the compounds were transferred to the cell plate and mixed using the Bravo. The cell plate was placed in the humidified 37° C. 5% CO2 incubator for 24 hours.
The MultiTox-Fluor Multiplex Cytotoxicity Assay was performed in accordance with the manufacturer's protocol. After cells were incubated with tet and compound for 24 hours, 25 μL of 1×MultiTox reagent was added to each well using the Multidrop dispenser; the plates were placed on a plate shaker (600 rpm) for 2 minutes, then centrifuged briefly and placed back in the 37° C. incubator for 30 minutes. […]

Row | Structure (SMILES) | IC50 [nM]
1 | C[C@@H]1C[C@](O)(c2cccc(Cl)c2)C[C@H](C)N1 [Compound 1] | ≥ 500
2 | CC1CC(O)(c2cccc(Cl)c2)CC(c2cnn(CCS(C)(=O)=O)c2)N1 (stereo not drawn) [Compound 2] | 50 to 500
3 | C[C@H]1C[C@@](O)(c2cccc(Cl)c2)C[C@@H](c2cn(C)nn2)N1 [Compound 3] | 50 to 500
4 | C[C@H]1C[C@@](O)(c2ccc(Cl)cc2)C[C@@H](c2cn(C)nn2)N1 [Compound 4] | ≤ 50
5 | Cc1ccc([C@@]2(O)C[C@@H](c3cn(C)nn3)N[C@@H](C)C2)cc1 [Compound 5] | 50 to 500
6 | Cc1cccc([C@@]2(O)C[C@@H](c3cn(C)nn3)N[C@@H](C)C2)c1 [Compound 6] | 50 to 500
7 | C[C@H]1C[C@@](O)(c2ccccc2)C[C@@H](c2cn(C)nn2)N1 [Compound 7] | ≥ 500
8 | CC(C)c1ccc([C@@]2(O)C[C@@H](c3cn(C)nn3)N[C@@H](C)C2)cc1 [Compound 8] | ≤ 50
9 | C[C@H]1C[C@@](O)(c2ccc(F)c(Cl)c2)C[C@@H](c2cn(C)nn2)N1 [Compound 9] | 50 to 500
10 | C[C@H]1C[C@@](O)(c2cc(F)cc(Cl)c2)C[C@@H](c2cn(C)nn2)N1 [Compound 10] | 50 to 500
11 | Cc1ccc([C@@]2(O)C[C@@H](c3cn(C)nn3)N[C@@H](C)C2)cc1F [Compound 11] | 50 to 500
12 | Cc1cc([C@@]2(O)C[C@@H](c3cn(C)nn3)N[C@@H](C)C2)ccc1F [Compound 12] | 50 to 500
13 | C[C@H]1C[C@@](O)(c2ccc(Cl)c(F)c2)C[C@@H](c2cn(C)nn2)N1 [Compound 13] | ≤ 50
14 | C[C@H]1C[C@@](O)(c2csc(C(F)(F)F)c2)C[C@@H](c2cn(C)nn2)N1 [Compound 14] | 50 to 500
15 | C[C@H]1C[C@@](O)(c2ccc(F)cc2)C[C@@H](c2cn(C)nn2)N1 [Compound 15] | ≥ 500
16 | C[C@H]1C[C@@](O)(c2ccc(C(F)(F)F)cc2)C[C@@H](c2cn(C)nn2)N1 [Compound 16] | ≤ 50
17 | C[C@H]1C[C@@](O)(c2ccc(Cl)nc2)C[C@@H](c2cn(C)nn2)N1 [Compound 17] | 50 to 500
18 | C[C@H]1C[C@@](O)(c2ccc(Cl)cn2)C[C@@H](c2cn(C)nn2)N1 [Compound 18] | 50 to 500
19 | COc1cc([C@@]2(O)C[C@@H](c3cn(C)nn3)N[C@@H](C)C2)ccc1Cl [Compound 19] | ≤ 50
20 | COc1cc(Cl)ccc1[C@@]1(O)C[C@@H](c2cn(C)nn2)N[C@@H](C)C1 [Compound 20] | ≥ 500
21 | Cc1cc(Cl)ccc1[C@@]1(O)C[C@@H](c2cn(C)nn2)N[C@@H](C)C1 [Compound 21] | 50 to 500
22 | C[C@H]1C[C@@](O)(c2ccc(Cl)cc2F)C[C@@H](c2cn(C)nn2)N1 [Compound 22] | ≤ 50
23 | C[C@H]1C[C@@](O)(c2ccc(Cl)c(OC(F)(F)F)c2)C[C@@H](c2cn(C)nn2)N1 [Compound 23] | ≤ 50
24 | C[C@H]1C[C@@](O)(c2ccc(Cl)c(C(=O)N(C)C)c2)C[C@@H](c2cn(C)nn2)N1 [Compound 24] | 50 to 500
25 | C[C@H]1C[C@@](O)(c2ccc(C(F)(F)F)c(F)c2)C[C@@H](c2cn(C)nn2)N1 [Compound 25] | ≤ 50
26 | Cc1cc([C@@]2(O)C[C@@H](c3cn(C)nn3)N[C@@H](C)C2)ccc1Cl [Compound 26] | ≤ 50

Row | Structure (SMILES) | IC50 [nM]
27 | C[C@H]1C[C@@](O)(c2ccc(Br)cc2)C[C@@H](c2cn(C)nn2)N1 [Compound 27] | ≤ 50
28 | COc1cc([C@@]2(O)C[C@@H](c3cn(C)nn3)N[C@@H](C)C2)ccc1C(F)(F)F [Compound 28] | ≤ 50
29 | C[C@H]1C[C@@](O)(c2ccc(C3CC3)cc2)C[C@@H](c2cn(C)nn2)N1 [Compound 29] | ≤ 50
30 | C[C@H]1C[C@@](O)(c2ccc(C#N)cc2)C[C@@H](c2cn(C)nn2)N1 [Compound 30] | 50 to 500
31 | C[C@H]1C[C@@](O)(c2ccc3c(c2)CC(C)(C)O3)C[C@@H](c2cn(C)nn2)N1 [Compound 31] | ≥ 500
32 | C[C@H]1C[C@@](O)(c2ccc3c(c2)C2(CCO3)CC2)C[C@@H](c2cn(C)nn2)N1 [Compound 32] | 50 to 500
33 | C[C@H]1C[C@@](O)(c2ccc(Cl)c(C(F)(F)F)c2)C[C@@H](c2cn(C)nn2)N1 [Compound 33] | ≤ 50
34 | Cc1cc([C@@]2(O)C[C@@H](c3cn(C)nn3)N[C@@H](C)C2)ccc1C(F)(F)F [Compound 34] | ≤ 50
35 | C[C@H]1C[C@@](O)(c2ccnc(C(F)(F)F)c2)C[C@@H](c2cn(C)nn2)N1 [Compound 35] | ≥ 500
36 | C[C@H]1C[C@@](O)(c2ccc(C(F)(F)F)c(Cl)c2)C[C@@H](c2cn(C)nn2)N1 [Compound 36] | ≤ 50
37 | C[C@H]1C[C@@](O)(c2ccc(C(F)(F)F)nc2)C[C@@H](c2cn(C)nn2)N1 [Compound 37] | 50 to 500
38 | C[C@H]1C[C@@](O)(c2ccc(C(F)F)cc2)C[C@@H](c2cn(C)nn2)N1 [Compound 38] | ≤ 50
39 | C[C@H]1C[C@@](O)(c2ccc(C(C)(F)F)cc2)C[C@@H](c2cn(C)nn2)N1 [Compound 39] | ≤ 50
40 | C[C@H]1C[C@@](O)(c2ccc3c(c2)OC(F)(F)C3(F)F)C[C@@H](c2cn(C)nn2)N1 [Compound 40] | ≤ 50
41 | C[C@H]1C[C@@](O)(c2ccc3c(c2)CCC3(F)F)C[C@@H](c2cn(C)nn2)N1 [Compound 41] | < 10000
42 | COc1cc([C@]2(O)C[C@H](C)N(C)[C@H](c3cn(C)nn3)C2)ccc1C(F)(F)F [Compound 42] | 50 to 500
43 | C[C@H]1C[C@@](O)(c2ccc(C(F)(F)F)c(O)c2)C[C@@H](c2cn(C)nn2)N1 [Compound 43] | ≤ 50
44 | C[C@H]1C[C@@](O)(c2ccc(C(F)(F)F)cc2O)C[C@@H](c2cn(C)nn2)N1 [Compound 44] | 50 to 500
45 | C[C@H]1C[C@@](O)(CS(=O)(=O)c2ccc(Br)cc2)C[C@@H](c2cn(C)nn2)N1 [Compound 45] | ≥ 500
46 | C[C@H]1C[C@@](C#N)(c2ccc(C(F)(F)F)cc2)C[C@@H](c2cn(C)nn2)N1 [Compound 46, (2S,4S,6S)-2-methyl-6-(1-methyltriazol-4-yl)-4-[4-(trifluoromethyl)phenyl]piperidine-4-carbonitrile] | 50 to 500
47 | C[C@H]1C[C@@](O)(c2ccc(C(F)(F)C(F)(F)F)cc2)C[C@@H](c2cn(C)nn2)N1 [Compound 47] | ≤ 50
48 | C[C@H]1C[C@@](O)(c2cccc(C(F)(F)F)c2)C[C@@H](c2cn(C)nn2)N1 [Compound 48] | 50 to 500
49 | C[C@H]1C[C@@](O)(c2ccc(SC3CC3)cc2)C[C@@H](c2cn(C)nn2)N1 [Compound 49] | 50 to 500
50 | C[C@H]1C[C@@](O)(c2ccc(C(F)(F)F)c(OC(F)(F)F)c2)C[C@@H](c2cn(C)nn2)N1 [Compound 50] | ≤ 50
51 | C[C@H]1C[C@@](O)(c2ccc(C(F)(F)F)c(C(F)(F)F)c2)C[C@@H](c2cn(C)nn2)N1 [Compound 51] | ≤ 50
